ChEMBL document CHEMBL3885861, “Open TG-GATES”

Organism: Rattus norvegicus
Assay: Open TG-GATES - Regimen: Daily Repeat
Assay type: toxicity, organism-based, Sprague-Dawley
Set-up: regimen Daily Repeat, gender Male, age 6 weeks
Settings: in vivo, po, route gavage; for APTT / Bas / Eos / Fbg / Ht / Lym / MCH / MCHC / MCV / Mono / Neu / Plat / RBC / Ret / WBC: tissue Blood; for ALP / ALT / AST / BUN / CRE / DBIL / GLC / IP / K / LDH / Na / PL / RALB / TBIL / TC / TG / TP / gamma-GTP: tissue Plasma
[1] = 0 mg/kg, 72 h, dose level Control, time 3 day
[2] = 0 mg/kg, […], dose level Control, time 7 day
[3] = 0 mg/kg, […], dose level Control, time 14 day
[4] = 0 mg/kg, […], dose level Control, time 28 day
[5] = 45 mg/kg, 72 h, dose level Low, time 3 day
[6] = 45 mg/kg, […], dose level Low, time 7 day
[7] = 45 mg/kg, […], dose level Low, time 14 day
[8] = 45 mg/kg, […], dose level Low, time 28 day

CCCC(CCC)C(=O)O [VALPROIC ACID]
TERMINAL_BW [1]: 222 g
APTT [1]: 18.8 s
Bas [1]: 0%
Eos [1]: 1%
Fbg [1]: 222.8 mg/dL
Ht [1]: 37.7%
Lym [1]: 82.2%
MCH [1]: 21.3 pg
MCHC [1]: 34.2%
MCV [1]: 62.3 fL
Mono [1]: 3.4%
Neu [1]: 12.8%
Plat [1]: 135 x10_4/uL
RBC [1]: 604.8 x10_4/ul
Ret [1]: 6.6%
WBC [1]: 101 x10_2/uL
ALP [1]: 1099.6 IU/L
ALT [1]: 35.6 IU/L
AST [1]: 65.4 IU/L
BUN [1]: 16.2 mg/dL
CRE [1]: 0.4 mg/dL
DBIL [1]: 0.062 mg/dL
GLC [1]: 216.2 mg/dL
IP [1]: 8 mg/dL
K [1]: 4.1 meq/L
LDH [1]: 206.6 IU/L
Na [1]: 140.8 meq/L
PL [1]: 145.2 mg/dL
RALB [1]: 3.3 g/dL
TBIL [1]: 0.1 mg/dL
TC [1]: 71.6 mg/dL
TG [1]: 84.6 mg/dL
TP [1]: 5.4 g/dL
gamma-GTP [1]: 0.8 IU/L
TERMINAL_BW [2]: 256.3 g
TERMINAL_BW [3]: 316.1 g
TERMINAL_BW [4]: 396.1 g
APTT [2]: 19.2 s
Bas [2]: 0%
Eos [2]: 1%
Fbg [2]: 210.8 mg/dL
Ht [2]: 40.7%
Lym [2]: 83.8%
MCH [2]: 21.2 pg
MCHC [2]: 34.3%
MCV [2]: 61.9 fL
Mono [2]: 2.6%
Neu [2]: 12.4%
Plat [2]: 132.8 x10_4/uL
RBC [2]: 658.4 x10_4/ul
Ret [2]: 5.8%
WBC [2]: 96.1 x10_2/uL
APTT [3]: 18.3 s
Bas [3]: 0%
Eos [3]: 1%
Fbg [3]: 228.2 mg/dL
Ht [3]: 40.9%
Lym [3]: 78.6%
MCH [3]: 20.7 pg
MCHC [3]: 35.2%
MCV [3]: 58.9 fL
Mono [3]: 2.4%
Neu [3]: 17.6%
Plat [3]: 140.4 x10_4/uL
RBC [3]: 695 x10_4/ul
Ret [3]: 4.7%
WBC [3]: 114.6 x10_2/uL
APTT [4]: 19.4 s
Bas [4]: 0%
Eos [4]: 1%
Fbg [4]: 227.8 mg/dL
Ht [4]: 42.7%
Lym [4]: 83%
MCH [4]: 19.2 pg
MCHC [4]: 34.9%
MCV [4]: 55.1 fL
Mono [4]: 2.2%
Neu [4]: 12.8%
Plat [4]: 108.4 x10_4/uL
RBC [4]: 775.4 x10_4/ul
Ret [4]: 2.6%
WBC [4]: 129.7 x10_2/uL
ALP [2]: 909.6 IU/L
ALT [2]: 33.6 IU/L
AST [2]: 66 IU/L
BUN [2]: 17.2 mg/dL
CRE [2]: 0.4 mg/dL
DBIL [2]: 0.08 mg/dL
GLC [2]: 223.2 mg/dL
IP [2]: 8 mg/dL
K [2]: 3.8 meq/L
LDH [2]: 199.6 IU/L
Na [2]: 141 meq/L
PL [2]: 146.2 mg/dL
RALB [2]: 3.4 g/dL
TBIL [2]: 0.1 mg/dL
TC [2]: 68.8 mg/dL
TG [2]: 106.4 mg/dL
TP [2]: 5.5 g/dL
gamma-GTP [2]: 1.2 IU/L
ALP [3]: 946.4 IU/L
ALT [3]: 34.8 IU/L
AST [3]: 64.4 IU/L
BUN [3]: 19 mg/dL
CRE [3]: 0.4 mg/dL
DBIL [3]: 0.098 mg/dL
GLC [3]: 231.4 mg/dL
IP [3]: 7.1 mg/dL
K [3]: 3.6 meq/L
LDH [3]: 198.8 IU/L
Na [3]: 140.6 meq/L
PL [3]: 166 mg/dL
RALB [3]: 3.5 g/dL
TBIL [3]: 0.1 mg/dL
TC [3]: 77 mg/dL
TG [3]: 137.2 mg/dL
TP [3]: 5.9 g/dL
gamma-GTP [3]: 1.2 IU/L
ALP [4]: 657.8 IU/L
ALT [4]: 34.8 IU/L
AST [4]: 64.4 IU/L
BUN [4]: 17.6 mg/dL
CRE [4]: 0.5 mg/dL
DBIL [4]: 0.088 mg/dL
GLC [4]: 208.8 mg/dL
IP [4]: 6.9 mg/dL
K [4]: 3.9 meq/L
LDH [4]: 175.2 IU/L
Na [4]: 140.2 meq/L
PL [4]: 150.6 mg/dL
RALB [4]: 3.5 g/dL
TBIL [4]: 0.1 mg/dL
TC [4]: 66.4 mg/dL
TG [4]: 155 mg/dL
TP [4]: 6.1 g/dL
gamma-GTP [4]: 1 IU/L
TERMINAL_BW [5]: 226.4 g
APTT [5]: 18.3 s
Bas [5]: 0%
Eos [5]: 1%
Fbg [5]: 221.6 mg/dL
Ht [5]: 38.6%
Lym [5]: 78%
MCH [5]: 21.7 pg
MCHC [5]: 34.2%
MCV [5]: 63.3 fL
Mono [5]: 3.4%
Neu [5]: 17%
Plat [5]: 137.5 x10_4/uL
RBC [5]: 609.4 x10_4/ul
Ret [5]: 7.3%
WBC [5]: 105.8 x10_2/uL
ALP [5]: 892.6 IU/L
ALT [5]: 36 IU/L
AST [5]: 69 IU/L
BUN [5]: 15.4 mg/dL
CRE [5]: 0.4 mg/dL
DBIL [5]: 0.076 mg/dL
GLC [5]: 210.4 mg/dL
IP [5]: 8.7 mg/dL
K [5]: 4 meq/L
LDH [5]: 217.4 IU/L
Na [5]: 140.8 meq/L
PL [5]: 160.4 mg/dL
RALB [5]: 3.4 g/dL
TBIL [5]: 0.1 mg/dL
TC [5]: 78.4 mg/dL
TG [5]: 84.2 mg/dL
TP [5]: 5.5 g/dL
gamma-GTP [5]: 1.4 IU/L
TERMINAL_BW [6]: 255.3 g
TERMINAL_BW [7]: 314.8 g
TERMINAL_BW [8]: 407 g
APTT [6]: 19 s
Bas [6]: 0%
Eos [6]: 1%
Fbg [6]: 211.6 mg/dL
Ht [6]: 40.1%
Lym [6]: 82.6%
MCH [6]: 21.3 pg
MCHC [6]: 34.4%
MCV [6]: 62 fL
Mono [6]: 3%
Neu [6]: 12.8%
Plat [6]: 133.3 x10_4/uL
RBC [6]: 647.4 x10_4/ul
Ret [6]: 5.7%
WBC [6]: 143.8 x10_2/uL
APTT [7]: 18.3 s
Bas [7]: 0%
Eos [7]: 1%
Fbg [7]: 229.2 mg/dL
Ht [7]: 41.1%
Lym [7]: 83.8%
MCH [7]: 20.7 pg
MCHC [7]: 35%
MCV [7]: 59.1 fL
Mono [7]: 2.6%
Neu [7]: 12.2%
Plat [7]: 130 x10_4/uL
RBC [7]: 695.4 x10_4/ul
Ret [7]: 4.7%
WBC [7]: 113.4 x10_2/uL
APTT [8]: 19.9 s
Bas [8]: 0%
Eos [8]: 1.4%
Fbg [8]: 214.2 mg/dL
Ht [8]: 42.1%
Lym [8]: 82.8%
MCH [8]: 19.6 pg
MCHC [8]: 35.1%
MCV [8]: 55.8 fL
Mono [8]: 2%
Neu [8]: 13.2%
Plat [8]: 112.1 x10_4/uL
RBC [8]: 755.6 x10_4/ul
Ret [8]: 2.7%
WBC [8]: 101.3 x10_2/uL
ALP [6]: 833.2 IU/L
ALT [6]: 35.2 IU/L
AST [6]: 65.6 IU/L
BUN [6]: 16.2 mg/dL
CRE [6]: 0.4 mg/dL
DBIL [6]: 0.084 mg/dL
GLC [6]: 219.6 mg/dL
IP [6]: 8.2 mg/dL
K [6]: 3.7 meq/L
LDH [6]: 193.8 IU/L
Na [6]: 140.2 meq/L
PL [6]: 143.4 mg/dL
RALB [6]: 3.4 g/dL
TBIL [6]: 0.1 mg/dL
TC [6]: 73.2 mg/dL
TG [6]: 86.4 mg/dL
TP [6]: 5.6 g/dL
gamma-GTP [6]: 1.6 IU/L
ALP [7]: 914.4 IU/L
ALT [7]: 34.8 IU/L
AST [7]: 65.8 IU/L
BUN [7]: 17.2 mg/dL
CRE [7]: 0.4 mg/dL
DBIL [7]: 0.086 mg/dL
GLC [7]: 234 mg/dL
IP [7]: 7.5 mg/dL
K [7]: 4 meq/L
LDH [7]: 192 IU/L
Na [7]: 141.2 meq/L
PL [7]: 151.2 mg/dL
RALB [7]: 3.3 g/dL
TBIL [7]: 0.1 mg/dL
TC [7]: 74.4 mg/dL
TG [7]: 106 mg/dL
TP [7]: 5.8 g/dL
gamma-GTP [7]: 0.8 IU/L
ALP [8]: 660.2 IU/L
ALT [8]: 37.4 IU/L
AST [8]: 65 IU/L
BUN [8]: 19 mg/dL
CRE [8]: 0.4 mg/dL
DBIL [8]: 0.1 mg/dL
GLC [8]: 200 mg/dL
IP [8]: 6.8 mg/dL
K [8]: 3.8 meq/L
LDH [8]: 168.2 IU/L
Na [8]: 141.4 meq/L
PL [8]: 147.2 mg/dL
RALB [8]: 3.4 g/dL
TBIL [8]: 0.2 mg/dL
TC [8]: 63.8 mg/dL
TG [8]: 158.4 mg/dL
